Test results reported in patent publication US20050085441A1, “Use of soluble monovalent oligosaccharides as inhibitors of HIV-1 fusion and replication” (priority 2002, published 2005).

Tests used:
[1] = test system: HIV-1 clinical isolate 1936; assay: Replication of T-tropic clinical isolate 1936 in MT-2 cells (p24 release); type: cell-based
[2] = test system: HIV-2 isolate CBL23; assay: Replication of HIV-2 clinical isolate CBL23 in MT-2 cells; type: cell-based; conditions: single oligosaccharide
Protocol: The effect of the oligosaccharides was also tested on the replication of CLB23, a T -tropic clinical isolate of HIV-2.

[3] = test system: HIV-1 clinical isolate ME46; assay: Replication of T-tropic clinical isolate ME46 in MT-2 cells (p24 release)
Source text: MT-2 cells were infected as described above, and the course of infection was followed by the release of p24.

[4] = test system: HIV-1 M-tropic strain Ba-L; assay: Replication of M-tropic strain Ba-L in human peripheral blood monocytes (p24 release); conditions: 0.5, 5 and 25 mM, MOI 0.001
[5] = test system: HIV-1 T-tropic envelope protein of HXB2; type: cell-based; conditions: virions with HIV HXB2 envelope protein, MT-2 cells
[6] = test system: HIV-1 laboratory strain NL4.3; assay: Viral p24 antigen release, HIV-1 NL4.3 in MT-2 cells; type: cell-based; conditions: for reduction of production of p24: day 7 post-infection; for effect on release of antigen p24: 0.5-50.0 mM tested, concentration not given
[7] = test system: vesicular stomatis virus (VSV) G protein; type: cell-based, vesicular stomatitis virus
[8] = test system: HIV-1 laboratory strain NL4.3; assay: Syncytia formation in MT-2 cells infected with HIV-1 NL4.3; type: cell-based
[9] = test system: HIV-1 (strain NL4.3); assay: HIV-1 replication in vivo in NOD-SCID huPBL mice (p24, viral load in peritoneal wash)

OC[C@H]1O[C@@H](O[C@H]2[C@H](O)[C@@H](O)[C@H](O)O[C@@H]2CO)[C@H](O)[C@@H](O)[C@H]1O [lactose, o-β-D-galactopyranosyl-(1-4)-β-D-glucopyranose]
effect on replication of isolate 1936 ([1]; 25 mM): practically did not affect | inhibition of replication of HIV-2 isolate CBL23 [2]: basically non-effective | effect on replication of isolate ME46 ([3]; 15 mM): minor effect | inhibition of replication of isolate ME46 ([3]; 25 mM): ten-fold | inhibition of replication of strain Ba-L (p24 release) [4]: ineffective | expression of the luciferase reporter [5]: inhibited | reduction of production of p24 ([6]; 5 mM lactose): 2 fold | effect on release of antigen p24 [6]: less potent than globotriose | expression of the luciferase reporter [7]: no effect was observed | effect on formation of syncytia ([8]; 0.5-50.0 mM tested, concentration not given): weaker than that exhibited by globotriose

CC(=O)N[C@H]1[C@H](O[C@H]2[C@@H](O)[C@@H](CO)O[C@@H](O[C@H]3[C@H](O)[C@@H](O)C(O)O[C@@H]3CO)[C@@H]2O)O[C@H](CO)[C@@H](O)[C@@H]1O[C@@H]1O[C@H](CO)[C@H](O)[C@H](O)[C@H]1O (stereo partly shown) [lacto-N-tetraose, reference compound]
inhibition of replication of strain Ba-L (p24 release) [4]: ineffective | effect on release of antigen p24 [6]: ineffective

OC[C@H]1O[C@H](O[C@@H]2[C@H](O)[C@@H](O)[C@H](O[C@H]3[C@H](O)[C@@H](O)C(O)O[C@@H]3CO)O[C@@H]2CO)[C@H](O)[C@@H](O)[C@H]1O (stereo partly drawn) [globotriose, galactose α1-4galactose β1-4glucose]
inhibition of replication of isolate 1936 ([1]; 5 mM and above): more than ten-fold | inhibition of replication of HIV-2 isolate CBL23 [2]: much weaker than for the HIV-1 isolates | HIV-1 replication (p24 and viral load) ([9]; globotriose 15 mg/mouse i.p. single dose, days 2 and 6 post infection): strongly inhibited | HIV-1 replication (p24 and viral load) ([9]; repeat experiment, single dose at beginning of infection, day 6): diminished replication | inhibition of replication of isolate ME46 ([3]; 5 mM and above): more than ten-fold | inhibition of replication of strain Ba-L (p24 release) [4]: did not inhibit | expression of the luciferase reporter [5]: inhibited | release of antigen p24 ([6]; 5 mM or lower): not at 5 mM or lower | reduction of production of p24 ([6]; 25 mM globotriose): 5 fold | release of antigen p24 ([6]; 25 mM, effect maximum at days 3 and 7, recovered at day 10 post-infection): inhibited | expression of the luciferase reporter [7]: no effect was observed except for the highest concentration | formation of syncytia (number and size) ([8]; 25 mM, MT-2 cells, NL4.3): completely inhibited | size of syncytia (number of nuclei) ([8]; concentrations lower than 25 mM): decreased
